Measured values from patent publication US6391914B1, “Optically active aminopentane derivatives” (Fujimoto Brothers Co., Ltd., priority 1998, dated 2002).
Structures can show the parent of a compound that is named as a salt.

Experiments:
[1] = tested on: isolated rat brain stem (electric-stimulated); experiment: Biogenic amines released from the rat brain stem by electrostimulation; details: for Minimum dose causing to release noradrenaline from electric-stimulated brain stem: electrostimulation 3 Hz, 1 ms, 60 V; for Minimum dose causing to release serotonin from electric-stimulated brain stem / Minimum dose causing to release dopamine from electric-stimulated brain stem: electrostimulation
[2] = tested on: tetrabenazine-treated rats; experiment: Conditioned avoidance task in the shuttle box, tetrabenazine-treated rats; assay type: in vivo, rat; details: for Minimum dose to cause conditioned avoidance reflexes (CARs) in tetrabenazine-treated rats in shuttle box: with tetrabenazine 1 mg/kg s.c.
Method: The method described in Life Sci., 58, 817-827 (1996) was used. The effects on conditioned avoidance reflex (CARs) were analyzed in the shuttle box using male and female rats (weighing 200-220 g) whose learning abilities were reduced by the administration of tetrabenazine. The instrument was constructed, according to the device described in Psychopharmacologia 10, 1-5 (1966). The male and female rats (weighing 200-220 g) were trained to cross the barrier under a conditioned stimulus. (CS, light flash and buzzer sounds). […] In addition, the unconcerned performance to this condition was noted as an intersignal reaction (IR). The rats were trained with 100 trials a day for 5 days. Each trial was carried out with 15-sec intertrial interval. Tetrabenazine saline solution was subcutaneously administered at a dose of 1 mg/kg 1 hr before the test. Then the solution of the compounds of the invention was administered at the doses of 1, 2, 2.5 and 5 mg/kg, s.c., simultaneously with tetrabenazine. The numbers of CARs, EFs and IRs were automatically counted and analyzed using one-way analysis of variance (ANOVA).
Therefore, the compound has no stimulant-like excitement.

[3] = tested on: brain tissues (striatum, substantia nigra, tuberculum olfactorium, locus coeruleus and raphe); experiment: Biogenic amines released from brain tissue after s.c. administration; assay type: in vivo, Wistar rats
Method: The method described in Life Sci., 56, 611-620 (1995) was used. After Wistar rats were decapitated, appropriate brain tissues (striatum, substantia nigra, tuberculum olfactorium, locus coeruleus and raphe) were isolated quickly and soaked in oxygenated (95% O2 and 5% CO2) Krebs' solution at 37° C. The composition of Krebs' solution (mmol/L) was as follows: NaCl 111, KCl 4.7, CaCl2 2.5, MgSO4 1.64, NaHCO3 25, KH2PO4 1.2, glucose 12 mg/L ascorbic acid and 20 mg/l EDTA-2Na. The preparations, submerged in one organ bath, were as follows: 1) four pieces of striatum (each halved), 2) four pieces of substantia nigra, 3) four pieces of tuberculum olfactorium, 4) eight pieces of locus coeruleus, 5) eight pieces of raphe. After incubating the tissue for 20 min, the Krebs' solution was exchanged. After the tissue was submerged for 20 min in Krebs' solution containing the compounds of the invention, the biogenic amine released during this period was quantified. The compounds of the invention, the (+)-isomer, the racemic compound and control compound, were respectively dissolved in saline, and subcutaneously administered 30 min before dissection of the brain samples. In the case of noradrenaline and dopamine, samples were purified on microcolumns (BDH Chemicals Ltd.) filled with 60 mg of alumina according to the method described in J. Pharmacol. Exp. Ther., 138, 360-372 (1962). In the case of serotonin, samples were purified on 15 mg Sephadex G-10 microcolumns (Pharmacia). Dopamine, noradrenaline and serotonin were quantified by high performance liquid chromatography (Waters 746 data module) with electrochemical detection (Waters 460 electrochemical detector). Waters Resolve 5μ Spherical C18 3.9×150 mm column was used as separating column and triethylamine-phosphate buffer (pH 5.2) containing 200/mg/L octaine sulfonate sodium and 18 mg/L EDTA-2Na with 6% acetonitrile, was used as mobile phase. The amount of appropriate amine released for 20 min was noted as nmol/g tissue. The differences among means were tested using Student's t-test. Significant level was set at P<0.05.

[4] = molecular target: T1, monoamine oxidase type-B (MAO-B) (Mus musculus, UniProt Q8BW75); experiment: Mice brain MAO-B inhibition (14C-phenylethylamine); assay type: biochemical; details: concentration of 10^−5 mol/L
T1 construct: the pellet was resuspended in the above buffer to be enzyme solution; from tissue; host or cells: whole brain of male C57Bl/6 mice, 40,000 g pellet
T1 sequence (Q8BW75 1-520): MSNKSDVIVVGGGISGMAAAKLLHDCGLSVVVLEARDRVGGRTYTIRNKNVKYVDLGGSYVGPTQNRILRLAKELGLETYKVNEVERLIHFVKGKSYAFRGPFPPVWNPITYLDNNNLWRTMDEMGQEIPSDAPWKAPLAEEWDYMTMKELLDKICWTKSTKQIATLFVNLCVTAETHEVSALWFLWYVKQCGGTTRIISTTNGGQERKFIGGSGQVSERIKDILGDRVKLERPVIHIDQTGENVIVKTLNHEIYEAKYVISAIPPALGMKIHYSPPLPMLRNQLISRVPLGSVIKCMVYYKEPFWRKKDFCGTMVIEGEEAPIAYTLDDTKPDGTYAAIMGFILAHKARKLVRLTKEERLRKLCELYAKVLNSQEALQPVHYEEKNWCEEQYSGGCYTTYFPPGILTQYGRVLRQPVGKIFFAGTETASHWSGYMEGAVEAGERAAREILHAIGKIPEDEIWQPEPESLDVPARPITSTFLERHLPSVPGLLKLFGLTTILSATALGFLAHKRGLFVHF
Method: After male C57B1/6 mice were decapitated, the whole brain was isolated immediately. The brain samples were weighed, and homogenized in 0.2 mol/L potassium phosphate buffer (pH 7.5) containing 1.0% EDTA-2Na by homogenizer. After the homogenate was centrifuged at 2,000 RPM for 20 min, the supernatant was centrifuged at 18,000 RPM (40,000 g) for 30 min. The pellet was resuspended, and further centrifuged in the same manner. Thereafter, the pellet was resuspended in the above buffer to be enzyme solution. All procedure was carried out at 4° C.
^14C-Labeled substrate (^14C-phenylethylamine) and enzyme solution from mice are mixed in test tube, incubated for 30 min at 37° C., and stopped the reaction with 20 μL of 6 mol/L Hcl. The reaction product was extracted with toluene-ethylacetate (1:1), and the radioactivity was measured using scintillation counter. Then, MAO-B inhibitory activity was calculated.

[5] = tested on: primary cultured hepatocyte; experiment: Toxicity screening using primary cultured hepatocyte (LDH release); assay type: cell-based, rat; details: 24 hr
Method: The hepatocytes was prepared from rat liver using collagenase perfusion method and the cell suspension containing 5×10^5 cells/mL were prepared. After cultivation for 24 hr, the medium was changed to the William's Medium E (GIBCO ERL) containing 10 or 100 μmol/L of the compounds of the invention. After cultivation for 24 hr, the activity of lactatedehydrogenase (LDH) released into the medium was measured.

SMILES | Minimum dose causing to release noradrenaline from electric-stimulated brain stem [1] | Minimum dose causing to release serotonin from electric-stimulated brain stem [1] | Minimum dose to cause conditioned avoidance reflexes (CARs) in tetrabenazine-treated rats in shuttle box ([2]; s.c.) | Percent control of LDH release from primary cultured hepatocyte ([5]; 10 μmol/L) | Percent control of LDH release from primary cultured hepatocyte ([5]; 100 μmol/L) | Minimum dose causing to release dopamine from electric-stimulated brain stem [1] | Amount of dopamine released, Striatum ([3]; dose 0.0005 mg/kg s.c.) | Amount of dopamine released, Substantia Nigraia ([3]; dose 0.0005 mg/kg s.c.) | Amount of dopamine released, Tuberculum Olfactorium ([3]; dose 0.0005 mg/kg s.c.) | Amount of noradrenaline released, Locus Coeruleus ([3]; dose 0.0005 mg/kg s.c.) | Amount of serotonin released, Raphe ([3]; dose 0.0005 mg/kg s.c.) | Amount of dopamine released, Striatum ([3]; dose 0.0025 mg/kg s.c.) | Amount of dopamine released, Substantia Nigraia ([3]; dose 0.0025 mg/kg s.c.) | Amount of dopamine released, Tuberculum Olfactorium ([3]; dose 0.0025 mg/kg s.c.) | Amount of noradrenaline released, Locus Coeruleus ([3]; dose 0.0025 mg/kg s.c.) | Amount of serotonin released, Raphe ([3]; dose 0.0025 mg/kg s.c.) | Amount of dopamine released, Striatum ([3]; dose 0.0500 mg/kg s.c.) | Amount of dopamine released, Substantia Nigraia ([3]; dose 0.0500 mg/kg s.c.) | Amount of dopamine released, Tuberculum Olfactorium ([3]; dose 0.0500 mg/kg s.c.) | Amount of noradrenaline released, Locus Coeruleus ([3]; dose 0.0500 mg/kg s.c.) | other results
CCCNC(CCC)Cc1cc2ccccc2o1.Cl (racemic) [Racemic compound, (±)-1-(benzofuran-2-yl)-2-propylaminopentane hydrochloride] | 5 µg/mL | 1 µg/mL | 1 mg mg/kg | 90.28 ± 2.85 Percent control | 112.10 ± 36.98 Percent control |  |  |  |  |  |  |  |  |  |  |  |  |  |  |  | Amount of dopamine released, Striatum ([3]; dose 0.0100 mg/kg s.c.): 5.3 ± 0.14 nmol/g · tissue. 20 min.; Amount of dopamine released, Substantia Nigraia ([3]; dose 0.0100 mg/kg s.c.): 6.6 ± 0.04 nmol/g · tissue. 20 min.; Amount of dopamine released, Tuberculum Olfactorium ([3]; dose 0.0100 mg/kg s.c.): 6.5 ± 0.20 nmol/g · tissue. 20 min.; Amount of noradrenaline released, Locus Coeruleus ([3]; dose 0.0100 mg/kg s.c.): 4.3 ± 0.20 nmol/g · tissue. 20 min.; Amount of serotonin released, Raphe ([3]; dose 0.0100 mg/kg s.c.): 0.457 ± 0.04 nmol/g · tissue. 20 min.; inhibition at 10 µM ([4]; read-out: Mice brain MAO-B inhibitory activity): 22.9%
CCCNC(CCC)Cc1cc2ccccc2o1.Cl (single isomer, unassigned; (+)) [(+)-Isomer, (+)-1-(benzofuran-2-yl)-2-propylaminopentane hydrochloride] | 0.5 µg/mL | 10 µg/mL | 2.5 mg mg/kg | 124.41 ± 12.54 Percent control | 116.72 ± 6.91 Percent control | 5 µg/mL | 4.4 ± 0.13 nmol/g · tissue. 20 min. | 13.8 ± 0.25 nmol/g · tissue. 20 min. | 6.7 ± 0.06 nmol/g · tissue. 20 min. | 10.3 ± 0.35 nmol/g · tissue. 20 min. | 1.785 ± 0.01 nmol/g · tissue. 20 min. | 4.4 ± 0.10 nmol/g · tissue. 20 min. | 8.4 ± 0.14 nmol/g · tissue. 20 min. | 4.8 ± 0.25 nmol/g · tissue. 20 min. | 7.4 ± 0.15 nmol/g · tissue. 20 min. | 1.138 ± 0.05 nmol/g · tissue. 20 min. | 4.4 ± 0.17 nmol/g · tissue. 20 min. | 7.1 ± 0.24 nmol/g · tissue. 20 min. | 4.8 ± 0.18 nmol/g · tissue. 20 min. | 4.4 ± 0.10 nmol/g · tissue. 20 min. | Amount of serotonin released, Raphe ([3]; dose 0.0500 mg/kg s.c.): 0.642 ± 0.02 nmol/g · tissue. 20 min.; Amount of dopamine released, Striatum ([3]; dose 0.1000 mg/kg s.c.): 5.8 ± 0.21 nmol/g · tissue. 20 min.; Amount of dopamine released, Substantia Nigraia ([3]; dose 0.1000 mg/kg s.c.): 15.9 ± 0.25 nmol/g · tissue. 20 min.; Amount of dopamine released, Tuberculum Olfactorium ([3]; dose 0.1000 mg/kg s.c.): 7.3 ± 0.20 nmol/g · tissue. 20 min.; Amount of noradrenaline released, Locus Coeruleus ([3]; dose 0.1000 mg/kg s.c.): 5.6 ± 0.25 nmol/g · tissue. 20 min.; Amount of serotonin released, Raphe ([3]; dose 0.1000 mg/kg s.c.): 0.381 ± 0.01 nmol/g · tissue. 20 min.; Mice brain MAO-B inhibitory activity [4]: 1.7%
CCCNC(CCC)Cc1cc2ccccc2o1 (single isomer, unassigned; (-)) [The compound of the invention, (−)-1-(benzofuran-2-yl)-2-propylaminopentane hydrochloride] | 0.01 µg/mL | 0.0005 µg/mL | 5 × 10^−2 mg mg/kg |  |  | 0.05 µg/mL | 4.8 ± 0.16 nmol/g · tissue. 20 min. | 13.8 ± 0.23 nmol/g · tissue. 20 min. | 6.7 ± 0.08 nmol/g · tissue. 20 min. | 15.4 ± 0.55 nmol/g · tissue. 20 min. | 0.914 ± 0.03 nmol/g · tissue. 20 min. | 5.7 ± 0.19 nmol/g · tissue. 20 min. | 13.1 ± 0.21 nmol/g · tissue. 20 min. | 6.9 ± 0.31 nmol/g · tissue. 20 min. | 3.9 ± 0.05 nmol/g · tissue. 20 min. | 0.421 ± 0.03 nmol/g · tissue. 20 min. | 6.5 ± 0.09 nmol/g · tissue. 20 min. | 10.9 ± 0.11 nmol/g · tissue. 20 min. | 7.7 ± 0.19 nmol/g · tissue. 20 min. | 4.3 ± 0.25 nmol/g · tissue. 20 min. | Noradrenaline, serotonin and dopamine release on electrostimulation (FIG. 1) ([1]; electrostimulated brain stem): confirmed to enhance noradrenaline, serotonin and dopamine release; Reduced learning function of rats administered with tetrabenazine (FIG. 2) ([2]; shuttle box, s.c.): significantly improved; Intersignal reactions (IRs) ([2]; shuttle box, tetrabenazine-treated rats): did not significantly change IRs; Amount of dopamine released, Striatum ([3]; dose 0.0001 mg/kg s.c.): 4.7 ± 0.14 nmol/g · tissue. 20 min.; Amount of dopamine released, Substantia Nigraia ([3]; dose 0.0001 mg/kg s.c.): 14.8 ± 0.36 nmol/g · tissue. 20 min.; Amount of dopamine released, Tuberculum Olfactorium ([3]; dose 0.0001 mg/kg s.c.): 7.2 ± 0.23 nmol/g · tissue. 20 min.; Amount of noradrenaline released, Locus Coeruleus ([3]; dose 0.0001 mg/kg s.c.): 6.6 ± 0.10 nmol/g · tissue. 20 min.; Amount of serotonin released, Raphe ([3]; dose 0.0001 mg/kg s.c.): 1.040 ± 0.03 nmol/g · tissue. 20 min.; Amount of serotonin released, Raphe ([3]; dose 0.0500 mg/kg s.c.): 0.457 ± 0.01 nmol/g · tissue. 20 min.; Mice brain MAO-B inhibitory activity [4]: 4.7%; Percent control of LDH release from primary cultured hepatocyte ([5]; 10 μmol/L, hydrochloride): 104.94 ± 4.96 Percent control; Percent control of LDH release from primary cultured hepatocyte ([5]; 10 μmol/L, listed as the compound of the invention, hydrochloride): not increase; Percent control of LDH release from primary cultured hepatocyte ([5]; 100 μmol/L, hydrochloride): 126.42 ± 8.04 Percent control; Percent control of LDH release from primary cultured hepatocyte ([5]; 100 μmol/L, listed as the compound of the invention, hydrochloride): slightly increased LDH release
